Measurements as given in publication PMC11822212, “High-throughput screening identifies Aurora kinase B as a critical therapeutic target for Merkel cell carcinoma” (Nature Communications, 2025).
Several values for one entry are separate records, joined by “and”; a condition that tells them apart may be missing. Equal values may be shown once. Where a name gives a salt, the structure may show the parent alone. Read-outs that look alike come from different tables or passages of the source.

Columns and labels:
Experiment in all cases: qHTS cell viability (CellTiter-Glo, 72 h; primary and follow-up small molecule screen)
Assay type in all cases: cell-based, human
WAGA cells (VP-MCC) = test system: WAGA cells (VP-MCC)
MKL-1 cells (VP-MCC) = test system: MKL-1 cells (VP-MCC)
MCC26 cells (VN-MCC) = test system: MCC26 cells (VN-MCC)
UISO cells (VN-MCC) = test system: UISO cells (VN-MCC)
MCC13 cells (VN-MCC) = test system: MCC13 cells (VN-MCC)
MKL-2 cells (VP-MCC) = test system: MKL-2 cells (VP-MCC)
[1] = follow-up screen, WAGA, replicate 1
[2] = follow-up screen, WAGA, replicate 2
[3] = follow-up screen, WAGA, replicate 3
[4] = follow-up screen, MKL-1, replicate 1
[5] = follow-up screen, MKL-1, replicate 2
[6] = follow-up screen, MKL-1, replicate 3
[7] = follow-up screen, MCC26, replicate 1
[8] = follow-up screen, MCC26, replicate 2
[9] = follow-up screen, MCC26, replicate 3
[10] = follow-up screen, UISO, replicate 1
[11] = follow-up screen, UISO, replicate 2
[12] = follow-up screen, UISO, replicate 3
[13] = follow-up screen, MCC13, replicate 1
[14] = follow-up screen, MCC13, replicate 2
[15] = follow-up screen, MCC13, replicate 3
[16] = follow-up screen, MKL-2, replicate 1
[17] = follow-up screen, MKL-2, replicate 2
[18] = follow-up screen, MKL-2, replicate 3

| Compound | Area under the dose-response curve (AUC) WAGA Replicate 1 (WAGA cells (VP-MCC)) | Area under the dose-response curve (AUC) WAGA Replicate 2 (WAGA cells (VP-MCC)) | Area under the dose-response curve (AUC) WAGA Replicate 1 (WAGA cells (VP-MCC); [1]) | Area under the dose-response curve (AUC) WAGA Replicate 2 (WAGA cells (VP-MCC); [2]) | Area under the dose-response curve (AUC) WAGA Replicate 3 (WAGA cells (VP-MCC); [3]) | Area under the dose-response curve (AUC) MKL-1 Replicate 1 (MKL-1 cells (VP-MCC); [4]) | Area under the dose-response curve (AUC) MKL-1 Replicate 2 (MKL-1 cells (VP-MCC); [5]) | Area under the dose-response curve (AUC) MKL-1 Replicate 3 (MKL-1 cells (VP-MCC); [6]) | Area under the dose-response curve (AUC) MCC26 Replicate 1 (MCC26 cells (VN-MCC); [7]) | Area under the dose-response curve (AUC) MCC26 Replicate 2 (MCC26 cells (VN-MCC); [8]) | Area under the dose-response curve (AUC) MCC26 Replicate 3 (MCC26 cells (VN-MCC); [9]) | Area under the dose-response curve (AUC) UISO Replicate 1 (UISO cells (VN-MCC); [10]) | Area under the dose-response curve (AUC) UISO Replicate 2 (UISO cells (VN-MCC); [11]) | Area under the dose-response curve (AUC) UISO Replicate 3 (UISO cells (VN-MCC); [12]) | Area under the dose-response curve (AUC) MCC13 Replicate 1 (MCC13 cells (VN-MCC); [13]) | Area under the dose-response curve (AUC) MCC13 Replicate 2 (MCC13 cells (VN-MCC); [14]) | Area under the dose-response curve (AUC) MCC13 Replicate 3 (MCC13 cells (VN-MCC); [15]) | Area under the dose-response curve (AUC) MKL-2 Replicate 1 (MKL-2 cells (VP-MCC); [16]) | Area under the dose-response curve (AUC) MKL-2 Replicate 2 (MKL-2 cells (VP-MCC); [17]) | Area under the dose-response curve (AUC) MKL-2 Replicate 3 (MKL-2 cells (VP-MCC); [18]) | further results |
| --- | --- | --- | --- | --- | --- | --- | --- | --- | --- | --- | --- | --- | --- | --- | --- | --- | --- | --- | --- | --- | --- |
| CCCC[C@@H](C)/C=C(C)/C=C(\C)C(=O)NC1=C[C@@](O)(/C=C/C=C/C=C/C(=O)NC2=C(O)CCC2=O)[C@@H]2O[C@@H]2C1=O [manumycin A] | 424.6 | 379.9 |  |  |  |  |  |  |  |  |  |  |  |  |  |  |  |  |  |  | Area under the dose-response curve (AUC) WAGA Replicate 3 (WAGA cells (VP-MCC)): 418.7; Area under the dose-response curve (AUC) MKL-1 Replicate 1 (MKL-1 cells (VP-MCC)): 418.4; Area under the dose-response curve (AUC) MKL-1 Replicate 2 (MKL-1 cells (VP-MCC)): 432.7; Area under the dose-response curve (AUC) MKL-1 Replicate 3 (MKL-1 cells (VP-MCC)): 426.4; Area under the dose-response curve (AUC) MCC26 Replicate 1 (MCC26 cells (VN-MCC)): 416.4; Area under the dose-response curve (AUC) MCC26 Replicate 2 (MCC26 cells (VN-MCC)): 409.7; Area under the dose-response curve (AUC) MCC26 Replicate 3 (MCC26 cells (VN-MCC)): 443.4; Area under the dose-response curve (AUC) UISO Replicate 1 (UISO cells (VN-MCC)): 429.0; Area under the dose-response curve (AUC) UISO Replicate 2 (UISO cells (VN-MCC)): 434.7; Area under the dose-response curve (AUC) UISO Replicate 3 (UISO cells (VN-MCC)): 408.1; Area under the dose-response curve (AUC) MCC13 Replicate 1 (MCC13 cells (VN-MCC)): 464.3; Area under the dose-response curve (AUC) MCC13 Replicate 2 (MCC13 cells (VN-MCC)): 477.8; Area under the dose-response curve (AUC) MCC13 Replicate 3 (MCC13 cells (VN-MCC)): 420.7; Area under the dose-response curve (AUC) MKL-2 Replicate 1 (MKL-2 cells (VP-MCC)): 385.8; Area under the dose-response curve (AUC) MKL-2 Replicate 2 (MKL-2 cells (VP-MCC)): 395.8; Area under the dose-response curve (AUC) MKL-2 Replicate 3 (MKL-2 cells (VP-MCC)): 389.6 |
| CS[C@H]1SC[C@H]2C(=O)N(C)[C@@H](C(C)C)C(=O)OC[C@@H](NC(=O)c3cnc4ccccc4n3)C(=O)N[C@@H](C)C(=O)N(C)[C@@H]1C(=O)N(C)[C@@H](C(C)C)C(=O)OC[C@@H](NC(=O)c1cnc3ccccc3n1)C(=O)N[C@@H](C)C(=O)N2C [Echinomycin] | 225.7 | 172.6 |  |  |  |  |  |  |  |  |  |  |  |  |  |  |  |  |  |  | Area under the dose-response curve (AUC) WAGA Replicate 3 (WAGA cells (VP-MCC)): 225.4; Area under the dose-response curve (AUC) MKL-1 Replicate 1 (MKL-1 cells (VP-MCC)): 235.9; Area under the dose-response curve (AUC) MKL-1 Replicate 2 (MKL-1 cells (VP-MCC)): 188.8; Area under the dose-response curve (AUC) MKL-1 Replicate 3 (MKL-1 cells (VP-MCC)): 250.5; Area under the dose-response curve (AUC) MCC26 Replicate 1 (MCC26 cells (VN-MCC)): 267.2; Area under the dose-response curve (AUC) MCC26 Replicate 2 (MCC26 cells (VN-MCC)): 264.2; Area under the dose-response curve (AUC) MCC26 Replicate 3 (MCC26 cells (VN-MCC)): 215.9; Area under the dose-response curve (AUC) UISO Replicate 1 (UISO cells (VN-MCC)): 140.9; Area under the dose-response curve (AUC) UISO Replicate 2 (UISO cells (VN-MCC)): 135.8; Area under the dose-response curve (AUC) UISO Replicate 3 (UISO cells (VN-MCC)): 136.4; Area under the dose-response curve (AUC) MCC13 Replicate 1 (MCC13 cells (VN-MCC)): 310.2; Area under the dose-response curve (AUC) MCC13 Replicate 2 (MCC13 cells (VN-MCC)): 265.0; Area under the dose-response curve (AUC) MCC13 Replicate 3 (MCC13 cells (VN-MCC)): 244.8; Area under the dose-response curve (AUC) MKL-2 Replicate 1 (MKL-2 cells (VP-MCC)): 166.1; Area under the dose-response curve (AUC) MKL-2 Replicate 2 (MKL-2 cells (VP-MCC)): 154.0; Area under the dose-response curve (AUC) MKL-2 Replicate 3 (MKL-2 cells (VP-MCC)): 225.2 |
| CC(=O)[C@]1(O)Cc2c(O)c3c(c(O)c2[C@@H](O[C@H]2C[C@H](N)[C@H](O)[C@H](C)O2)C1)C(=O)c1ccccc1C3=O [Idarubicin hydrochloride] |  |  | 205.3 | 258.0 | 233.3 | 222.7 | 242.3 | 233.3 | 293.6 | 292.8 | 227.6 | 184.7 | 180.9 | 186.4 | 321.5 | 353.4 | 356.2 | 203.6 | 200.3 | 265.0 |  |
| CN(C)c1ccc(C(=C2C=CC(=[N+](C)C)C=C2)c2ccccc2)cc1.CN(C)c1ccc(C(=C2C=CC(=[N+](C)C)C=C2)c2ccccc2)cc1.O=C(O)C(=O)O.O=C([O-])C(=O)O.O=C([O-])C(=O)O [Malachite green oxalate] | 353.3 | 347.4 |  |  |  |  |  |  |  |  |  |  |  |  |  |  |  |  |  |  | Area under the dose-response curve (AUC) WAGA Replicate 3 (WAGA cells (VP-MCC)): 369.9; Area under the dose-response curve (AUC) MKL-1 Replicate 1 (MKL-1 cells (VP-MCC)): 266.3; Area under the dose-response curve (AUC) MKL-1 Replicate 2 (MKL-1 cells (VP-MCC)): 258.0; Area under the dose-response curve (AUC) MKL-1 Replicate 3 (MKL-1 cells (VP-MCC)): 280.5; Area under the dose-response curve (AUC) MCC26 Replicate 1 (MCC26 cells (VN-MCC)): 302.0; Area under the dose-response curve (AUC) MCC26 Replicate 2 (MCC26 cells (VN-MCC)): 333.8; Area under the dose-response curve (AUC) MCC26 Replicate 3 (MCC26 cells (VN-MCC)): 303.0; Area under the dose-response curve (AUC) UISO Replicate 1 (UISO cells (VN-MCC)): 285.6; Area under the dose-response curve (AUC) UISO Replicate 2 (UISO cells (VN-MCC)): 315.1; Area under the dose-response curve (AUC) UISO Replicate 3 (UISO cells (VN-MCC)): 271.1; Area under the dose-response curve (AUC) MCC13 Replicate 1 (MCC13 cells (VN-MCC)): 284.7; Area under the dose-response curve (AUC) MCC13 Replicate 2 (MCC13 cells (VN-MCC)): 297.6; Area under the dose-response curve (AUC) MCC13 Replicate 3 (MCC13 cells (VN-MCC)): 312.3; Area under the dose-response curve (AUC) MKL-2 Replicate 1 (MKL-2 cells (VP-MCC)): 272.5; Area under the dose-response curve (AUC) MKL-2 Replicate 2 (MKL-2 cells (VP-MCC)): 267.6; Area under the dose-response curve (AUC) MKL-2 Replicate 3 (MKL-2 cells (VP-MCC)): 282.8 |
| O=c1c(O)c(-c2ccccc2)oc2cc(O)cc(O)c12 [Galangin] |  |  | 519.0 | 499.5 | 488.3 | 490.3 | 490.8 | 492.0 | 449.4 | 457.3 | 461.1 | 481.0 | 489.8 | 457.6 | 503.7 | 491.8 | 491.4 | 477.3 | 508.2 | 500.6 |  |
| Oxamflatin |  |  |  |  |  |  |  |  |  |  |  |  |  |  |  |  |  |  |  |  | Area under the dose-response curve (AUC) (WAGA cells (VP-MCC)): 338.5 and 313.0 and 330.7; Area under the dose-response curve (AUC) (MKL-1 cells (VP-MCC)): 365.5 and 347.7 and 381.7; Area under the dose-response curve (AUC) (MCC26 cells (VN-MCC)): 406.5 and 378.8 and 411.0; Area under the dose-response curve (AUC) (UISO cells (VN-MCC)): 391.0 and 406.3 and 400.1; Area under the dose-response curve (AUC) (MCC13 cells (VN-MCC)): 440.6 and 393.8 and 429.1; Area under the dose-response curve (AUC) (MKL-2 cells (VP-MCC)): 378.9 and 303.8 and 268.6 |
| Fc1ccc2[nH]ccc2c1-c1nc(N2CCOCC2)c2sc(CN3CCN(CC4CC4)CC3)cc2n1 [PI-3065] |  |  |  |  |  |  |  |  |  |  |  |  |  |  |  |  |  |  |  |  | Area under the dose-response curve (AUC) (WAGA cells (VP-MCC)): 514.3 and 478.8 and 484.1; Area under the dose-response curve (AUC) (MKL-1 cells (VP-MCC)): 492.3 and 479.8 and 465.2; Area under the dose-response curve (AUC) (MCC26 cells (VN-MCC)): 439.2 and 434.6 and 464.1; Area under the dose-response curve (AUC) (UISO cells (VN-MCC)): 477.0 and 474.8 and 437.8; Area under the dose-response curve (AUC) (MCC13 cells (VN-MCC)): 491.4 and 471.7 and 470.9; Area under the dose-response curve (AUC) (MKL-2 cells (VP-MCC)): 468.3 and 439.3 and 471.2 |
| [O-][n+]1ccccc1SSc1cccc[n+]1[O-] [Dipyrithione] |  |  | 319.9 | 346.1 | 356.9 | 254.8 | 246.8 | 245.5 | 305.7 | 302.8 | 280.4 | 241.8 | 283.0 | 225.1 | 333.5 | 320.8 | 288.3 | 287.6 | 277.7 | 248.6 |  |
| COc1ccc([C@]2(C#N)CC[C@@H](C(=O)O)CC2)cc1OC1CCCC1 [Cilomilast] |  |  | 477.6 | 504.5 | 496.1 | 459.2 | 478.6 | 483.6 | 421.1 | 410.0 | 436.1 | 447.9 | 471.9 | 485.5 | 465.9 | 445.9 | 491.5 | 473.7 | 471.8 | 486.7 |  |
